Earlier results, collected in paper PMC9587990, “Molecular basis for isoform-selective inhibition of presenilin-1 by MRK-560” (Nature Communications, 2022).

Test system: PS1-complex over PS2
Details: cited from earlier work

| Compound | reported isoform selectivity |
| --- | --- |
| C[C@H](c1ccc(F)cc1CCCC(=O)O)N(c1cc(F)ccc1F)S(=O)(=O)c1ccc(Cl)cc1 [BMS299897] | PS1 selectivity |
| O=C1NCCCCC1N(Cc1ccc(Br)cc1)S(=O)(=O)c1ccc(Cl)cc1 (centres unmarked) [ELN318463] | PS1 selectivity |
